Columns and labels:
Assay type in all cases: cell-based
[1] = biological target: T1, αMβ2 integrin (Homo sapiens, UniProt P05107+P11215); assay: αMβ2 integrin-mediated HL60 cell adhesion to Fg; conditions: HL60 cell adhesion to Fg (10 μg/mL), mean ± SD; for IC50: antagonists
T1 construct: HL60 cells, mainly expressing the leukocyte integrin αMβ2; host or cells: HL60 (PMA-treated)
Protocol: To this purpose, the ability of the best peptidomimetics to modulate cell adhesion mediated by integrins other than α4β1 was evaluated in HL60 cells, mainly expressing the leukocyte integrin αMβ2, and on K562 cells, mainly expressing α5β1, which shares a β1 subunit with the heterodimer α4β1. […] In contrast, 13 was a moderate promoter of cell adhesion mediated by αMβ2 integrin, behaving as an agonist. Regarding α5β1 integrin, none of the peptidomimetics employed were able to modulate K562 cell adhesion, thus being shown to be completely ineffective toward α5β1 integrin. The reference compound DS-70 was ineffective toward both αMβ2 and α5β1 integrins under the same experimental conditions (Table 3).
The assays were performed as previously described. Briefly, regarding adhesion assays on Jurkat E6.1 or HL-60 cells, black 96-well plates (Corning Costar) were coated overnight at 4 °C with FN or Fg (10 μg/mL) or VCAM-1 (2 μg/mL) in order to investigate α4β1 integrin-mediated cell adhesion. To avoid any kind of unspecific binding, plates were incubated with 100 μL/well of blocking solution (1% BSA in HBSS) for 30 min at 37 °C. Cells were counted, stained with the CellTracker green CMFDA (12.5 μM, 30 min at 37 °C, Life Technologies Italia, Milan, Italy) and after three washes, were preincubated with increasing concentrations of new compounds (10^−10–10^−4 M) or with the vehicle (methanol) for 30 min at 37 °C.
Then, cells were plated (500,000/well) on coated wells and incubated for 30 min at 37 °C. Afterwards nonadherent cells were removed via washing with a blocking solution, and the remaining adhered cells were lysed with 0.5% Triton X-100 in PBS (30 min at 4 °C). Green fluorescence was measured (Ex485 nm/Em535 nm) using an EnSpire Multimode Plate Reader (PerkinElmer, Waltham, MA, USA).
In both types of adhesion assay, the number of adherent cells was determined via comparison with a standard curve made in the same plate. Experiments were carried out in quadruplicate and repeated at least three times. Data analysis and EC50 or IC50 values were calculated using GraphPad Prism 9.5.1 (GraphPad Software, San Diego, CA, USA).
Cell culture. Jurkat E6.1 (expressing both α4β1 and αLβ2 integrin), K562 (expressing α5β1 integrin) and HL60 (expressing α Mβ2 integrin) cell lines were purchased from ATCC (Rockville, MD, USA); these cells were routinely cultured in RPMI-1640 (Life Technologies) supplemented with 1% glutamine and 10% fetal bovine serum (FBS). Cells were grown at 37 °C under 5% CO 2 humidified atmosphere. […]

[2] = biological target: T2, α4β1 integrin (Homo sapiens, UniProt P05556+P13612); assay: HUTS-21 monoclonal antibody binding (α4β1 integrin conformation), flow cytometry; conditions: Jurkat E6.1 cells; compounds 1–100 nM; FN 10 µg/mL; versus vehicle
T2 construct: Jurkat E6.1 cell line, which endogenously expresses α4β1 integrin; host or cells: Jurkat E6.1
T2 sequence (P13612 34-1032): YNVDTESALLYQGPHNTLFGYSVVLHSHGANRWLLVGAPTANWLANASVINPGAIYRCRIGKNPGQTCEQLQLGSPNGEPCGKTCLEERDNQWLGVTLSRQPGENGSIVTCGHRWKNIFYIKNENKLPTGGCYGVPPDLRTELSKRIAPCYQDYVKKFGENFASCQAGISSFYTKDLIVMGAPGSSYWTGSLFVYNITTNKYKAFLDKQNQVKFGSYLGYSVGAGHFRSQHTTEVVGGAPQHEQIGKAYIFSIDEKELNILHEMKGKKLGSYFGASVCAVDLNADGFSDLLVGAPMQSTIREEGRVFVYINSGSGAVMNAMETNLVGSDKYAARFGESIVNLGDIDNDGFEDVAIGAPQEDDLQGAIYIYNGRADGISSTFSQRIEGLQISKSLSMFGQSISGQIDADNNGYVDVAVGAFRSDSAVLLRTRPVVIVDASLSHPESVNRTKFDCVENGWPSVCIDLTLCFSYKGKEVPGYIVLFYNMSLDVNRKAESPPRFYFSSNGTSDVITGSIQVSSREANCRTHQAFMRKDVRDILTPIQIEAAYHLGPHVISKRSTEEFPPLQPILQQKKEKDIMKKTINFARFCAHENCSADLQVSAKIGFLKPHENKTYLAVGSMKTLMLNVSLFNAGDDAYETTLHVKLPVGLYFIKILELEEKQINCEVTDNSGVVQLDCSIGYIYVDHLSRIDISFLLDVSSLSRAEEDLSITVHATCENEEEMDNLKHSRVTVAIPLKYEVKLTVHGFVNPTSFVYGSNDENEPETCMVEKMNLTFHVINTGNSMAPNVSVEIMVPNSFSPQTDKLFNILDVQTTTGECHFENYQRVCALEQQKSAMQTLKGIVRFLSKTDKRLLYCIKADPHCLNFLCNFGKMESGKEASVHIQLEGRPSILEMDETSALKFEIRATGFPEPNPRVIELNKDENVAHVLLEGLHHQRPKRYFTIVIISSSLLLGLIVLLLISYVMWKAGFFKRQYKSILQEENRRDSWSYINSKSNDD
T2 sequence (P05556 21-798): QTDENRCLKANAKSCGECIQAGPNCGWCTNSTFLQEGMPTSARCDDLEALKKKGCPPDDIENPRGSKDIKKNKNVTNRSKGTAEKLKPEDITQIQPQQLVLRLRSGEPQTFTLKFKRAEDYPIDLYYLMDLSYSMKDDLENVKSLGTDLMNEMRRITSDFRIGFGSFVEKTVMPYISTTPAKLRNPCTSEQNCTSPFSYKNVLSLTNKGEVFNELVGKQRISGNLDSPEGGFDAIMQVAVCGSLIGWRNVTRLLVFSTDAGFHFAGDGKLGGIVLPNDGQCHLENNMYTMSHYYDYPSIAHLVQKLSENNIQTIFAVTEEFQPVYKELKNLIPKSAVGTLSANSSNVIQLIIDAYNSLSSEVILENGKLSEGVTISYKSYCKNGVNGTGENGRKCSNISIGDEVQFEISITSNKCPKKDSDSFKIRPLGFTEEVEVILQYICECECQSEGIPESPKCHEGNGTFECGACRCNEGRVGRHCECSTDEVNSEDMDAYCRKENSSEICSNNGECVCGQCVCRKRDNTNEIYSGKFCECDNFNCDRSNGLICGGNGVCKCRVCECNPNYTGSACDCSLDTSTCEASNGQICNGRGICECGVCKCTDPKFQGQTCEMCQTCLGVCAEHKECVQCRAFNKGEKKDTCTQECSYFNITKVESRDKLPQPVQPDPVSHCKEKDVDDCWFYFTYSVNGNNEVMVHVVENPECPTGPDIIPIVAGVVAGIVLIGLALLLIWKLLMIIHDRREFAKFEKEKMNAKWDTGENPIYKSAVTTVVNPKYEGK
From the text: Integrin functions are regulated by a number of conformational changes in the protein itself. […] Conformational changes can be evaluated by using conformationally sensitive antibodies which specifically recognize epitopes exposed only in a defined structural conformation. To better depict peptidomimetics–α4β1 integrin interactions, we employed PE-conjugated HUTS-21 mAb that recognizes an epitope mapped to the hybrid domain of the β1 subunit.
Conversely, antagonists 3, 8, and 13, although binding to α4β1 integrin as previously shown, were not able to induce any conformational rearrangement, showing very low binding of HUTS-21 mAb.
Flow cytometry analysis was performed as previously described, with the following modifications. Jurkat E6.1 cells were resuspended in 1% BSA in HBSS (50,000 cells/sample); then, FN (10 μg/mL) and two concentrations of the best peptidomimetics (100–1 nM) were added to the cells for 30 min. Thereafter, phycoerythrin (PE)-conjugated, conformational-sensitive HUTS-21 mAb (PE mouse anti-human CD29 antibody, Becton Dickinson Italia, Milan, Italy) (20 μL/sample) was added for 45 min at room temperature; after two washes, Jurkat E6.1 cells were suspended in PBS, and 10,000 cells/sample were acquired in a Guava®EasyCyte Flow Cytometer. The data are presented as the mean fluorescence intensity (MFI). Data were normalized with the relative fluorescence for nonspecific binding evaluated by exposing the cells to an isotype control mAb set to 0.

[3] = tested on: JNK; assay: Western blot, FN-induced JNK phosphorylation in Jurkat E6.1 cells; conditions: Jurkat E6.1 cells pre-treated with 10^−7, 10^−8, 10^−9 M, then FN (10 µg/mL) 30 min
Protocol: To this purpose, Jurkat E6.1 cells were pre-treated with different concentrations (10^−7, 10^−8, 10^−9 M) of the compounds and then exposed to FN (10 µg/mL) for 30 min. […] In addition, the effects observed on intracellular signaling were concentration-dependent, except for compound 13 on AKT activation.
Western blot analysis was performed as previously described, with the following modifications. […] For integrin antagonists, JurkatE6.1 cells were subsequently incubated with FN (10 μg/mL) at 37 °C for 30 min. At the end of the incubation period, Jurkat E6.1 cells were lysed on ice using T-PER® (Tissue Protein Extraction Reagent, Life Technologies Italia, Milan, Italy), supplemented with a phosphatase inhibitor cocktail. Protein extracts were quantified using a BCA Protein Assay (Pierce, Rockford, IL, USA). The proteins from the cytoplasmatic extract were denatured at 95 °C for 3 min, then equal amounts of protein samples (30–50 μg) were loaded and separated via 12% SDS-PAGE. Proteins were transferred onto a nitrocellulose membrane (Biorad, Hercules, CA, USA), which was blocked with 5% nonfat milk in a Tris-buffered saline (10 mM Tris-HCl, pH 8, containing 150 mM NaCl) containing 0.1% Tween 20 for 1 h at room temperature. Membranes were stained overnight at 4 °C with anti-actin antibody (1:5000, Merck Life Science, Milan, Italy) or with anti-phospho-ERK1/2, anti-total ERK1/2, anti-phospho-AKT, anti-total-AKT, or anti-phospho-JNK antibodies (1:1000; Cell Signaling Technology, Danvers, MA, USA). The membranes were incubated with anti-rabbit peroxidase-conjugated secondary antibodies at a dilution of 1:8000. Blots were developed with a SuperSignal West Pico chemiluminescent substrate. Protocols for digital image acquisition and analysis have previously been described.

T1 sequence (P05107 23-769, other chains not shown): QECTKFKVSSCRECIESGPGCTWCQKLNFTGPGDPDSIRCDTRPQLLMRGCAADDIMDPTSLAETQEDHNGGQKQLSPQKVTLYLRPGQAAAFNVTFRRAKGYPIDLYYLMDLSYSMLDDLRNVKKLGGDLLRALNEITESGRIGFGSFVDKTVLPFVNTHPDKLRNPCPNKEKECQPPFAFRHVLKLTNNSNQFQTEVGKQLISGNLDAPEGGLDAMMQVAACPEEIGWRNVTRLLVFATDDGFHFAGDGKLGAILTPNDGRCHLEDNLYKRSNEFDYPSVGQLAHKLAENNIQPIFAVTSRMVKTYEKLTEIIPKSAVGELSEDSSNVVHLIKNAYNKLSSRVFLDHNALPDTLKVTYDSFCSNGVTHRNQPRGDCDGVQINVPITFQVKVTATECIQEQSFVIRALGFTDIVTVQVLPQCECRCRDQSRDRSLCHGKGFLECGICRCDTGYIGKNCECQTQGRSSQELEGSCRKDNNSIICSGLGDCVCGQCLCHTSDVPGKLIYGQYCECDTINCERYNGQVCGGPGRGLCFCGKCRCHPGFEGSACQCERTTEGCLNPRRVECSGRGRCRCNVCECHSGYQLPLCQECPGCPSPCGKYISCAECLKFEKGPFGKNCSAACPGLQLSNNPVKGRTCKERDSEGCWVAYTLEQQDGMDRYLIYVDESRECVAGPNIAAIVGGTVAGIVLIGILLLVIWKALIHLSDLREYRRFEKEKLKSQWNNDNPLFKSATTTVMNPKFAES

| SMILES | IC50 [1] [nM] | binding of HUTS-21 mAb (MFI) [2] | FN-induced JNK phosphorylation [3] | EC50 ([1]; agonist = increased number of adherent cells) [nM] |
| --- | --- | --- | --- | --- |
| CCCNC(=O)[C@@H](CC(=O)NCC(=O)O)NC(=O)Cc1ccc(NC(=O)Nc2ccccc2C)cc1 [compound 8] | > 5000 | not able to increase the binding of HUTS-21 mAb | able to significantly prevent | – |
| Cc1ccccc1NC(=O)Nc1ccc(CNC(=O)C[C@@H](C)NC(=O)CC(=O)O)cc1 [compound 13] | – | not able to increase the binding of HUTS-21 mAb | did not counteract | 285 |
| CC(=O)N[C@@H](CNC(=O)Cc1ccc(NC(=O)Nc2ccccc2C)cc1)C(=O)NCC(=O)O [compound 3] | 76 | not able to increase the binding of HUTS-21 mAb | did not counteract | – |
